Measured values as given in patent US6964949B2, “Pharmaceutical compositions for promoting the growth of gram-positive bacilli and increasing the acidity in the vagina and the use thereof” (Shanghai Jiao Da Onlly Co., Ltd., priority 2000, dated 2005).

Assays:
Format in all cases: cell-based
[1] = tested on: vaginal secretion specimen of a patient suffering from typical bacterial vaginosis; assay: Experiment Example 5: pH of culture samples (production of acids); conditions: 10.0% maltose, 1.0% yeast extract, 1.6% xanthan gum
Text: (§1) • (1)The preparation of the compositions: Maltose was used to prepare the following compositions according to the method mentioned above: • A. 10.0% maltose, 1.0% yeast extract, 1.6% xanthan gum, pH adjusted to 4.4; • B. 10.0% maltose, 1.0% yeast extract, 1.6% xanthan gum, pH adjusted to 4.8; • C. 10.0% maltose, 1.0% yeast extract, 1.6% xanthan gum, pH adjusted to 5.1; • D. 10.0% maltose, 1.0% yeast extract, 1.6% xanthan gum, pH adjusted to 5.4; • E. 10.0% maltose, 1.0% yeast extract, 1.6% xanthan gum, pH adjusted to 5.8; • F. 10.0% maltose, 1.0% yeast extract, 1.6% xanthan gum, pH adjusted to 6.4; • G. 10.0% maltose, 1.0% yeast extract, 1.6% xanthan gum, pH adjusted to 6.8; • H. 10.0% maltose, 1.0% yeast extract, 1.6% xanthan gum, pH adjusted to 7.2; • (2)The preparation of the test tubes: Compositions prepared above were filled into the test tubes, with each tube containing 5 ml, sterilized, and kept until use for experiments. • (3)Specimen suspension: Vaginal secretion was taken from one of the patients suffering from typical bacterial vaginosis with a cotton swab, then the swab was washed in 2 ml sterilized Trypcase-soy Broth immediately, and thus the specimen suspension was ready. […] Then the tubes were placed in a candle jar and cultivated at 37° C. After 24 hours and 48 hours' culture, culture samples were taken respectively from each of the tubes, then the Gram smears of the samples were observed and the pH values of culture samples were tested.

Gram-negative cocci = assay: Experiment Example 5: influence of composition pH (10.0% maltose), specimen culture, Gram smear; conditions: 1.0% yeast extract, 1.6% xanthan gum
Text: as §1

Gram-positive cocci = assay: as above; conditions: 1.0% yeast extract, 1.6% xanthan gum
Text: as §1

Gram-negative bacilli = assay: as above; conditions: 1.0% yeast extract, 1.6% xanthan gum
Text: as §1

Gram-positive bacilli = assay: as above; conditions: 1.0% yeast extract, 1.6% xanthan gum
Text: as §1

[2] = pH of the composition 4.4, 24 hours
[3] = pH of the composition 4.4, 48 hours
[4] = pH of the composition 4.8, 24 hours
[5] = pH of the composition 4.8, 48 hours
[6] = pH of the composition 5.1, 24 hours
[7] = pH of the composition 5.1, 48 hours
[8] = pH of the composition 5.4, 24 hours
[9] = pH of the composition 5.4, 48 hours
[10] = pH of the composition 5.8, 24 hours
[11] = pH of the composition 5.8, 48 hours
[12] = pH of the composition 6.4, 24 hours
[13] = pH of the composition 6.4, 48 hours
[14] = pH of the composition 6.8, 24 hours
[15] = pH of the composition 6.8, 48 hours
[16] = pH of the composition 7.2, 24 hours
[17] = pH of the composition 7.2, 48 hours

OC[C@H]1O[C@H](O[C@H]2[C@H](O)[C@@H](O)[C@H](O)O[C@@H]2CO)[C@H](O)[C@@H](O)[C@@H]1O [Maltose, maltose]
pH, 24 hours culture ([1]; pH of the composition 4.4): 4.4 | pH, 48 hours culture ([1]; pH of the composition 4.4): 4.4 | pH, 24 hours culture ([1]; pH of the composition 4.8): 4.8 | pH, 48 hours culture ([1]; pH of the composition 4.8): 4.4-4.8 | pH, 24 hours culture ([1]; pH of the composition 5.1): 4.6 | pH, 48 hours culture ([1]; pH of the composition 5.1): 4.4-4.6 | pH, 24 hours culture ([1]; pH of the composition 5.4): 5.4 | pH, 48 hours culture ([1]; pH of the composition 5.4): 4.1-4.4 | pH, 24 hours culture ([1]; pH of the composition 5.8): 4.8 | pH, 48 hours culture ([1]; pH of the composition 5.8): 4.1 | pH, 24 hours culture ([1]; pH of the composition 6.4): 4.4 | pH, 48 hours culture ([1]; pH of the composition 6.4): 4.1 | pH, 24 hours culture ([1]; pH of the composition 6.8): 5.4 | pH, 48 hours culture ([1]; pH of the composition 6.8): 4.4 | pH, 24 hours culture ([1]; pH of the composition 7.2): 5.4 | pH, 48 hours culture ([1]; pH of the composition 7.2): 4.1 | Bacteria G − c (Gram-negative cocci), 24 hours culture (Gram-negative cocci; [2]): G − c, − (No or less than one bacterium per field of version under oil-immersion lens) | Bacteria G − c (Gram-negative cocci), 48 hours culture (Gram-negative cocci; [3]): G − c, − (No or less than one bacterium per field of version under oil-immersion lens) | Bacteria G − c (Gram-negative cocci), 24 hours culture (Gram-negative cocci; [4]): G − c, − (No or less than one bacterium per field of version under oil-immersion lens) | Bacteria G − c (Gram-negative cocci), 48 hours culture (Gram-negative cocci; [5]): G − c, − (No or less than one bacterium per field of version under oil-immersion lens) | Bacteria G − c (Gram-negative cocci), 24 hours culture (Gram-negative cocci; [6]): G − c, − (No or less than one bacterium per field of version under oil-immersion lens) | Bacteria G − c (Gram-negative cocci), 48 hours culture (Gram-negative cocci; [7]): G − c, − (No or less than one bacterium per field of version under oil-immersion lens) | Bacteria G − c (Gram-negative cocci), 24 hours culture (Gram-negative cocci; [8]): G − c, − (No or less than one bacterium per field of version under oil-immersion lens) | Bacteria G − c (Gram-negative cocci), 48 hours culture (Gram-negative cocci; [9]): G − c, − (No or less than one bacterium per field of version under oil-immersion lens) | Bacteria G − c (Gram-negative cocci), 24 hours culture (Gram-negative cocci; [10]): G − c, − (No or less than one bacterium per field of version under oil-immersion lens) | Bacteria G − c (Gram-negative cocci), 48 hours culture (Gram-negative cocci; [11]): G − c, − (No or less than one bacterium per field of version under oil-immersion lens) | Bacteria G − c (Gram-negative cocci), 24 hours culture (Gram-negative cocci; [12]): G − c, − (No or less than one bacterium per field of version under oil-immersion lens) | Bacteria G − c (Gram-negative cocci), 48 hours culture (Gram-negative cocci; [13]): G − c, − (No or less than one bacterium per field of version under oil-immersion lens) | Bacteria G − c (Gram-negative cocci), 24 hours culture (Gram-negative cocci; [14]): G − c, − (No or less than one bacterium per field of version under oil-immersion lens) | Bacteria G − c (Gram-negative cocci), 48 hours culture (Gram-negative cocci; [15]): G − c, − (No or less than one bacterium per field of version under oil-immersion lens) | Bacteria G − c (Gram-negative cocci), 24 hours culture (Gram-negative cocci; [16]): G − c, − (No or less than one bacterium per field of version under oil-immersion lens) | Bacteria G − c (Gram-negative cocci), 48 hours culture (Gram-negative cocci; [17]): G − c, − (No or less than one bacterium per field of version under oil-immersion lens) | Bacteria G + c (Gram-positive cocci), 24 hours culture (Gram-positive cocci; [2]): G + c, − (No or less than one bacterium per field of version under oil-immersion lens) | Bacteria G + c (Gram-positive cocci), 48 hours culture (Gram-positive cocci; [3]): G + c, − (No or less than one bacterium per field of version under oil-immersion lens) | Bacteria G + c (Gram-positive cocci), 24 hours culture (Gram-positive cocci; [4]): G + c, + (1-9 bacteria per field of vision under oil-immersion lens) | Bacteria G + c (Gram-positive cocci), 48 hours culture (Gram-positive cocci; [5]): G + c, + (1-9 bacteria per field of vision under oil-immersion lens) | Bacteria G + c (Gram-positive cocci), 24 hours culture (Gram-positive cocci; [6]): G + c, + (1-9 bacteria per field of vision under oil-immersion lens) | Bacteria G + c (Gram-positive cocci), 48 hours culture (Gram-positive cocci; [7]): G + c, ++ (About 10-99 bacteria per field of vision under oil-immersion lens) | Bacteria G + c (Gram-positive cocci), 24 hours culture (Gram-positive cocci; [8]): G + c, + (1-9 bacteria per field of vision under oil-immersion lens) | Bacteria G + c (Gram-positive cocci), 48 hours culture (Gram-positive cocci; [9]): G + c, − (No or less than one bacterium per field of version under oil-immersion lens) | Bacteria G + c (Gram-positive cocci), 24 hours culture (Gram-positive cocci; [10]): G + c, + (1-9 bacteria per field of vision under oil-immersion lens) | Bacteria G + c (Gram-positive cocci), 48 hours culture (Gram-positive cocci; [11]): G + c, + (1-9 bacteria per field of vision under oil-immersion lens) | Bacteria G + c (Gram-positive cocci), 24 hours culture (Gram-positive cocci; [12]): G + c, + (1-9 bacteria per field of vision under oil-immersion lens) | Bacteria G + c (Gram-positive cocci), 48 hours culture (Gram-positive cocci; [13]): G + c, + (1-9 bacteria per field of vision under oil-immersion lens) | Bacteria G + c (Gram-positive cocci), 24 hours culture (Gram-positive cocci; [14]): G + c, − (No or less than one bacterium per field of version under oil-immersion lens) | Bacteria G + c (Gram-positive cocci), 48 hours culture (Gram-positive cocci; [15]): G + c, + (1-9 bacteria per field of vision under oil-immersion lens) | Bacteria G + c (Gram-positive cocci), 24 hours culture (Gram-positive cocci; [16]): G + c, − (No or less than one bacterium per field of version under oil-immersion lens) | Bacteria G + c (Gram-positive cocci), 48 hours culture (Gram-positive cocci; [17]): G + c, − (No or less than one bacterium per field of version under oil-immersion lens) | Bacteria G − b (Gram-negative bacilli), 24 hours culture (Gram-negative bacilli; [2]): G − b, ++ (About 10-99 bacteria per field of vision under oil-immersion lens) | Bacteria G − b (Gram-negative bacilli), 48 hours culture (Gram-negative bacilli; [3]): G − b, ++ (About 10-99 bacteria per field of vision under oil-immersion lens) | Bacteria G − b (Gram-negative bacilli), 24 hours culture (Gram-negative bacilli; [4]): G − b, ++ (About 10-99 bacteria per field of vision under oil-immersion lens) | Bacteria G − b (Gram-negative bacilli), 48 hours culture (Gram-negative bacilli; [5]): G − b, ++ (About 10-99 bacteria per field of vision under oil-immersion lens) | Bacteria G − b (Gram-negative bacilli), 24 hours culture (Gram-negative bacilli; [6]): G − b, ++ (About 10-99 bacteria per field of vision under oil-immersion lens) | Bacteria G − b (Gram-negative bacilli), 48 hours culture (Gram-negative bacilli; [7]): G − b, ++ (About 10-99 bacteria per field of vision under oil-immersion lens) | Bacteria G − b (Gram-negative bacilli), 24 hours culture (Gram-negative bacilli; [8]): G − b, + (1-9 bacteria per field of vision under oil-immersion lens) | Bacteria G − b (Gram-negative bacilli), 48 hours culture (Gram-negative bacilli; [9]): G − b, ++ (About 10-99 bacteria per field of vision under oil-immersion lens) | Bacteria G − b (Gram-negative bacilli), 24 hours culture (Gram-negative bacilli; [10]): G − b, ++ (About 10-99 bacteria per field of vision under oil-immersion lens) | Bacteria G − b (Gram-negative bacilli), 48 hours culture (Gram-negative bacilli; [11]): G − b, ++ (About 10-99 bacteria per field of vision under oil-immersion lens) | Bacteria G − b (Gram-negative bacilli), 24 hours culture (Gram-negative bacilli; [12]): G − b, ++ (About 10-99 bacteria per field of vision under oil-immersion lens) | Bacteria G − b (Gram-negative bacilli), 48 hours culture (Gram-negative bacilli; [13]): G − b, ++ (About 10-99 bacteria per field of vision under oil-immersion lens) | Bacteria G − b (Gram-negative bacilli), 24 hours culture (Gram-negative bacilli; [14]): G − b, ++ (About 10-99 bacteria per field of vision under oil-immersion lens) | Bacteria G − b (Gram-negative bacilli), 48 hours culture (Gram-negative bacilli; [15]): G − b, ++ (About 10-99 bacteria per field of vision under oil-immersion lens) | Bacteria G − b (Gram-negative bacilli), 24 hours culture (Gram-negative bacilli; [16]): G − b, + (1-9 bacteria per field of vision under oil-immersion lens) | Bacteria G − b (Gram-negative bacilli), 48 hours culture (Gram-negative bacilli; [17]): G − b, ++ (About 10-99 bacteria per field of vision under oil-immersion lens) | Bacteria G + b (Gram-positive bacilli), 24 hours culture (Gram-positive bacilli; [2]): G + b, −˜+ | Bacteria G + b (Gram-positive bacilli), 48 hours culture (Gram-positive bacilli; [3]): G + b, −˜+ | Bacteria G + b (Gram-positive bacilli), 24 hours culture (Gram-positive bacilli; [4]): G + b, + (1-9 bacteria per field of vision under oil-immersion lens) | Bacteria G + b (Gram-positive bacilli), 48 hours culture (Gram-positive bacilli; [5]): G + b, + (1-9 bacteria per field of vision under oil-immersion lens) | Bacteria G + b (Gram-positive bacilli), 24 hours culture (Gram-positive bacilli; [6]): G + b, + (1-9 bacteria per field of vision under oil-immersion lens) | Bacteria G + b (Gram-positive bacilli), 24 hours culture (Gram-positive bacilli; [8]): G + b, +++ (About 100 bacteria or more per field vision under oil-immersion lens, even uncountable) | Bacteria G + b (Gram-positive bacilli), 24 hours culture (Gram-positive bacilli; [10]): G + b, ++ (About 10-99 bacteria per field of vision under oil-immersion lens) | Bacteria G + b (Gram-positive bacilli), 48 hours culture (Gram-positive bacilli; [11]): G + b, +++ (About 100 bacteria or more per field vision under oil-immersion lens, even uncountable) | Bacteria G + b (Gram-positive bacilli), 24 hours culture (Gram-positive bacilli; [12]): G + b, + (1-9 bacteria per field of vision under oil-immersion lens) | Bacteria G + b (Gram-positive bacilli), 48 hours culture (Gram-positive bacilli; [13]): G + b, +++ (About 100 bacteria or more per field vision under oil-immersion lens, even uncountable) | Bacteria G + b (Gram-positive bacilli), 24 hours culture (Gram-positive bacilli; [14]): G + b, ++ (About 10-99 bacteria per field of vision under oil-immersion lens) | Bacteria G + b (Gram-positive bacilli), 48 hours culture (Gram-positive bacilli; [15]): G + b, +++ (About 100 bacteria or more per field vision under oil-immersion lens, even uncountable) | Bacteria G + b (Gram-positive bacilli), 24 hours culture (Gram-positive bacilli; [16]): G + b, ++ (About 10-99 bacteria per field of vision under oil-immersion lens) | Bacteria G + b (Gram-positive bacilli), 48 hours culture (Gram-positive bacilli; [17]): G + b, +++ (About 100 bacteria or more per field vision under oil-immersion lens, even uncountable)
